Measurements taken from patent US5143903A, “Method of treatment with tripeptide pharmaceutical compositions as immunomodulators” (priority 1989, dated 1992).

How the values were obtained:
[1] = tested on: Mononuclear cells of peripheral human blood (PBMC); assay: Test on the proliferation of mononuclear cells; type: cell-based; set-up: key: expressing with +, ++ and +++ the substances acting as stimulants (from the least to the most effective); expressing with +, ++ and +++ the substances acting as stimulants (from the least to the most effective); expressing with +, ++ and +++ the substances acting as stimulants (from the least to the most effective); with -, -- and --- the substances inhibiting normal cell growth; with -, -- and --- the substances inhibiting normal cell growth; with -, -- and --- the substances inhibiting normal cell growth; The inactive compounds were expressed with =; separating with / the effects of the higher doses from those of the lower doses; settings: Table 2, tritium thymidine; for Effect on cell proliferation, ACTIVATOR USED Interl. 2: PBMC activated with Interleukin 2, 6 days
Procedure: Mononuclear cells of peripheral human blood (PBMC), provided by healthy volunteers, were purified according to techniques normally used in haematology laboratories, and were finally suspended, at a concentration of 1.000.000/ml in the bed RPMI 1640 (company Flow Laboratories), enriched with 10% of heat inactivated human serum, 2 mM of glutamine and 40 mcg/ml of Gentalyn (from Shering Co.).
The cells were cultivated (100.000/pit) in triplicate on plates of 96 flat-bottomed pits, for a varying number of days according to the activating substances used (6 days for Interleukin 2 and PPD, 3 days for PHA and ConA), in 200 microliters of the suspension bed, in an incubator at 37° C. with 5% CO2. During the last 17 hours of culture the cells were marked with 0,5 microCuries of tritium thymidine (TdR). At the end of the incubation period, the radioactivity present in the cells was gathered on fiberglass filters. Embedded TdR was measured in a beta-radiation counter.
The results are expressed as arithmetic averages of the counts.
On the cells cultivated in this manner the effect of the substances derived from snake poison was tested.
Using the same methods employed in the test described above, a series of compounds having a peptide structure according to the invention, along with other control compounds, were tested for their imunomodulant activity.

T lymphocites = assay: Comparison with Interferon gamma: proliferative response of T lymphocites after presentation of B lymphocites treated with PPD; type: cell-based; settings: 1000 u/ml
Source text: With the aim of more detailed study of the mechanism of action, the effect of the tripeptide PYR-LEU-TRP has been compared to that of Interferon gamma as regards the stimulation of the proliferative response of T lymphocites after presentation of the B lymphocites treated with PPD.

Row | Molecule | Effect on cell proliferation, ACTIVATOR USED Interl. 2 [1] | Effect on cell proliferation, ACTIVATOR USED PPD ([1]; PBMC activated with PPD, 6 days) | increase of the basal proliferative response (T lymphocites)
1 | CC(C)C[C@H](NP(=O)(O)O[C@@H]1O[C@@H](C)[C@H](O)[C@@H](O)[C@H]1O)C(=O)N[C@@H](Cc1c[nH]c2ccccc12)C(=O)O [Phosphoramidon] | +++ | +++ | 
2 | Z--PRO--LEU--TRP | +++ |  | 
3 | gamma Interferon: Interferon gamma, compared with the tripeptide at 1000 u/ml |  |  | approximately two and a half times
